Results as given in article PMC7738871, “Covalent modification of Keap1 at Cys77 and Cys434 by pubescenoside a suppresses oxidative stress-induced NLRP3 inflammasome activation in myocardial ischemia-reperfusion injury” (Theranostics, 2021).

Legend:
Keap1 C77S/C434S = target: T1, Keap1 C77S/C434S (Homo sapiens, UniProt Q14145, C434S/C77S); experiment: ITC titration of PBA with Keap1-C77S/C434S; format: binding
T1 construct: His (N); made in house; host or cells: E. coli BL21 (DE3)
Method: The Keap1 was amplified by PCR using a human cDNA library, and was subcloned into the vector pET28-TEV, which contained one tobacco etch virus (TEV) protease cleavage site at the upstream multiple cloning site. The protein was expressed in E. coli BL21 (DE3) cells and incubated at 37 °C until the OD600 value reached 0.6, using 0.2 mM isopropyl β-D-1-thiogalactopyranoside (IPTG) overnight induction at 18 °C. The cells were isolated by centrifugation, resuspended in ice-cold lysis buffer and lysed by cryogenic overpressure cell breaker at 1,200 psi. The lysates were centrifuged for 60 min at 14,000 rpm to obtain the supernatant. Gravity flow purification of Keap1 protein was obtained at room temperature using 1 mL of Ni-NTA and eluted in buffer containing 250 mM imidazole, followed by 1 mL of HiTrap QHP for the second step purification. The final protein was purified and validated by Superdex 200 10/300GL resin.
The mutant plasmid DNA was obtained by PCR. The PCR products were cleaved by DpnI restriction enzymes. The restriction endonuclease-cleaved mixture was subsequently transformed into E. coli DH5α. Colonies were evaluated by colony PCR and sequenced. The mutant plasmid was transformed into E. coli BL21 (DE3) after successful sequencing. The steps for expression and purification of all recombinants were described above.
Isothermal calorimetry (ITC) titration experiments were performed at 25 °C. WT Keap1, Keap1 mutants and PBA were dissolved in binding buffer (40 mM Tris-HCl pH 8.0, 250 mM NaCl). In a typical experiment, 60 μL of PBA (1 mM) was injected 19 times at 2-min intervals from a stirring syringe into the sample cell containing 300 μL of WT protein or mutants (30 μM). The first injection was 0.4 μL of PBA, and the subsequent 18 injections were 2 μL each time. The site-binding models were determined by using MicroCal Origin software.

NLRP3 inflammasome = experiment: LPS plus ATP-induced NLRP3 inflammasome in RAW264.7; format: cell-based
Method: Based on the previous study, RAW264.7 cells were treated with different concentrations of PBA 1 h before 200 ng/mL lipopolysaccharide (LPS) stimulation for 6 h. Then, 2 mM adenosine triphosphate (ATP) was added and incubated for 20 min at 37 °C with 5% CO2.
Total protein was isolated from H9c2 cells, primary mouse cardiomyocytes, RAW264.7 cells and heart tissue using 1X RIPA buffer containing phosphatase and proteinase inhibitors at 4 °C. After measurement of the concentration, the cell lysates were separated by sodium dodecyl sulphate polyacrylamide gel electrophoresis (SDS-PAGE) and transferred to polyvinylidene fluoride (PVDF) membranes. The membranes were blocked in Tris-buffered saline-Tween 20 (TBST) buffer with 5% BSA for 1 h and incubated with primary antibodies (1:1000 dilution) overnight at 4 °C. After the membranes was washed by TBST buffer for three times, they were incubated with horseradish peroxidase (HRP)-conjugated secondary mouse or rabbit antibodies (1:3,000 dilution) at room temperature (RT) for 1.5 h and then detected by SuperEnhanced chemiluminescence (ECL) reaction reagents (GBCBIO Technologies Inc., Guangzhou, Guangdong, China). […] After letting the membranes stand for 1-2 min, the bands of the respective proteins were detected with the exposure time of 10 ~60 s.
According to previous experiences, Nrf2 nucleus translocation could be detected at 6 h. […]

[1] = ITC, 25 ℃, Keap1 C77S/C434S double mutant

T1 sequence (Q14145 whole entry C77S/C434S): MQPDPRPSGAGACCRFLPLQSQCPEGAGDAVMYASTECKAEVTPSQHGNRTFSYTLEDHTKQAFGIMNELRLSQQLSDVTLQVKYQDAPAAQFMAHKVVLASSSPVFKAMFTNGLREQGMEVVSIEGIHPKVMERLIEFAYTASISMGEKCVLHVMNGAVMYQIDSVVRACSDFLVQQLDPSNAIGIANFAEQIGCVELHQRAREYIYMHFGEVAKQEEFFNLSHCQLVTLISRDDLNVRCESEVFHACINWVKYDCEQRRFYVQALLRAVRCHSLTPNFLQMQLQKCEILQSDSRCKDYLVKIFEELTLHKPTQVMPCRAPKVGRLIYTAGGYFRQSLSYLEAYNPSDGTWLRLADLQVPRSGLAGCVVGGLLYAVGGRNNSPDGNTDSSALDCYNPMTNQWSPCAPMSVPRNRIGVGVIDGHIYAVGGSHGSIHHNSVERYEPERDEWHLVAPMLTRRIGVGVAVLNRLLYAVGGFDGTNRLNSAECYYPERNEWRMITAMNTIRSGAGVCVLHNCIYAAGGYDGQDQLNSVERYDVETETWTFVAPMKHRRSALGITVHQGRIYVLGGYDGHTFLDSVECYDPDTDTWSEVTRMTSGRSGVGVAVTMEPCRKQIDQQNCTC

C=C(COC(=O)C=Cc1ccc(O)c(O)c1)C(O)COC1OC(CO)C(O)C(O)C1O (stereo not shown) [PBA, pubescenoside A]
Kd (Keap1 C77S/C434S; [1]): 38.6 µM
T△S (Keap1 C77S/C434S; [1]): 1.11 ± 0.00 kcal/mol
△G (Keap1 C77S/C434S; [1]): -6.03 ± 0.00 kcal/mol
△H (Keap1 C77S/C434S; [1]): -4.92 ± 0.637 kcal/mol
Kd weaker than that of the WT (Keap1 C77S/C434S; double mutant Cys77S/Cys434S vs WT Keap1): ~ 15 fold
LPS/ATP-induced ACS and Caspase1 expression (immunofluorescent staining) (NLRP3 inflammasome; RAW264.7, 30 μM): significantly reduced
LPS/ATP-mediated NLPR3 induction, cleaved-caspase1 and IL-1β (NLRP3 inflammasome; RAW264.7, PBA 1 h pretreatment, 200 ng/mL LPS 6 h, 2 mM ATP 20 min, western blot): attenuated
